Experiments:
[1] = test system: Candida albicans MTU 12021; assay: Agar dilution MIC, single and combined use; format: cell-based; details: Candida albicans, MTU12021; single use; Sabouraud agar, 37° C., 48 hours; read-out: Minimum Inhibitory Concentration (MIC)
Protocol: (1) The effects of the combined use of Compound 1 with various imidazole antifungal agents against Candida albicans MTU 12021 strain were examined as follows. […] Then, distilled water containing 0.1% by weight of Tween 80 was added thereto to obtain drug solutions having a concentration of from 1 to 1,000 μg/ml.
(§1) 1 ml of each drug solution diluted twice was introduced into a sterilized Petri dish, and 8 ml of Sabouraud agar medium was added to prepare a agar plate. Thus, a series of agar plates for the combinations having various concentrations were prepared.
(§2) Candida albicans MTU 12021 strain cultured on a Sabouraud agar medium for 24 hours, was suspended in a saline, and a cells suspension having a concentration of 2×10^6 spores/ml was prepared by counting the number of spores by a hemacytometer. Then, 50 μl of the cells suspension was inoculated to the above agar plates by means of a microplanter (manufactured by Sakuma Seisakusho). The inoculated agar plates were cultured at 37° C. for 48 hours, whereupon the presence or absence of the growth of the strain was examined.
(§3) Culture medium: Sabouraud agar medium
(§4) Culturing condition: 37° C. for 48 hours
(§5) Strain used: Candida albicans MTU 12021

[2] = test system: Candida albicans MTU 12021; assay: Checker board method, combined use of Compound 1 with miconazole or ketoconazole; format: cell-based; further: key: +: Growth observed; -: No growth observed
Protocol: as §1, §2, §3, §4, §5

[3] = test system: Candida albicans MTU 12021; assay: Influence of combined use of Compound 1 with miconazole over the growth curve; format: cell-based; details: 24 and 48 hours, FIG. 1
Protocol: Upon expiration of 24 hours and 48 hours, 0.1 ml of the culture medium was sampled and spread on a Sabouraud agar plate containing 0.5% of yeast extract, followed by culturing at 37° C. for 48 hours. Then, the number of colonies were counted to determine the number of survived fungi.

[4] = test system: Candida albicans MTU 12021; assay: Disk method (growth inhibition ring); format: cell-based
Protocol: (3) The effects of the combined use of Compound 1 with miconazole or ketoconazole were examined by a disk method.
Candida albicans MTU 12021 stain was mixed with a Sabouraud agar medium to have a concentration of 5×10^4 spores/ml, and 10 ml thereof was poured into a sterilized Petri dish to obtain an inoculated agar plate.
50 mg of each of Compound 1, miconazole and ketoconazole was impregnated to a disk (Toyo Filter paper of 8 mm in diameter), and the disk was placed on the inoculated agar plate, followed by culturing at 37° C. for 96 hours, whereupon the synergistic effects were evaluated based on the growth inhibition ring thereby appeared.

[5] = test system: ICR male mice; assay: Acute toxicity, oral, mice; format: in vivo; details: up to 5,000 mg/kg, ICR male mice of 5 weeks old
From the text: To examine the acute toxicity of the arylmethylamine antifungal agents used in the composition of the present invention, Compounds 1 and 2 were selected, and they were, respectively, suspended in 0.5% methyl cellulose and orally administered to ICR male mice of 5 weeks old (body weight: 26-28 g) at a dose corresponding to the body weight.

[6] = test system: Candida albicans MTU 12021; assay: Agar dilution MIC, single and combined use; format: cell-based; details: Compound 1 combined with non-azole agents; Table 4

Structure (SMILES): CN(Cc1ccc(C(C)(C)C)cc1)Cc1cccc2ccccc12 [Compound 1, N-4-tert-butylbenzyl-N-methyl-1-naphthalenemethylamine]
- MIC [1]: > 100 µg/mL
- Growth ([2]; Compound 1 0.39 μg/ml, ketoconazole 0): +
- Growth ([2]; Compound 1 0.78 μg/ml, ketoconazole 0): +
- Growth ([2]; Compound 1 1.56 μg/ml, ketoconazole 0): +
- Growth ([2]; Compound 1 3.13 μg/ml, ketoconazole 0): +
- Growth ([2]; Compound 1 3.13 μg/ml, miconazole 0): +
- Growth ([2]; Compound 1 12.5 μg/ml, ketoconazole 0): +
- Growth ([2]; Compound 1 12.5 μg/ml, miconazole 0): +
- Growth ([2]; Compound 1 25 μg/ml, ketoconazole 0): +
- Growth ([2]; Compound 1 25 μg/ml, miconazole 0): +
- Growth ([2]; Compound 1 50 μg/ml, ketoconazole 0): +
- Growth ([2]; Compound 1 50 μg/ml, miconazole 0): +
- Growth ([2]; Compound 1 100 μg/ml, ketoconazole 0): +
- Growth ([2]; Compound 1 100 μg/ml, miconazole 0): +
- Growth ([2]; Compound 1 0.39 + ketoconazole 0.1 μg/ml): +
- Growth ([2]; Compound 1 0.39 + ketoconazole 0.2 μg/ml): +
- Growth ([2]; Compound 1 0.39 + ketoconazole 0.39 μg/ml): +
- Growth ([2]; Compound 1 0.39 + ketoconazole 0.78 μg/ml): +
- Growth ([2]; Compound 1 0.39 + ketoconazole 1.56 μg/ml): +
- Growth ([2]; Compound 1 0.39 + ketoconazole 3.13 μg/ml): +
- Growth ([2]; Compound 1 0.39 + ketoconazole 12.5 μg/ml): +
- Growth ([2]; Compound 1 0.39 + ketoconazole 25 μg/ml): -
- Growth ([2]; Compound 1 0.39 + ketoconazole 50 μg/ml): -
- Growth ([2]; Compound 1 0.39 + ketoconazole 100 μg/ml): -
- Growth ([2]; Compound 1 0.78 + ketoconazole 0.1 μg/ml): +
- Growth ([2]; Compound 1 0.78 + ketoconazole 25 μg/ml): -
- Growth ([2]; Compound 1 0.78 + ketoconazole 50 μg/ml): -
- Growth ([2]; Compound 1 0.78 + ketoconazole 100 μg/ml): -
- Growth ([2]; Compound 1 1.56 + ketoconazole 0.1 μg/ml): +
- Growth ([2]; Compound 1 1.56 + ketoconazole 25 μg/ml): -
- Growth ([2]; Compound 1 1.56 + ketoconazole 50 μg/ml): -
- Growth ([2]; Compound 1 1.56 + ketoconazole 100 μg/ml): -
- Growth ([2]; Compound 1 3.13 + ketoconazole 0.1 μg/ml): +
- Growth ([2]; Compound 1 3.13 + ketoconazole 25 μg/ml): -
- Growth ([2]; Compound 1 3.13 + ketoconazole 50 μg/ml): -
- Growth ([2]; Compound 1 3.13 + ketoconazole 100 μg/ml): -
- Growth ([2]; Compound 1 3.13 + miconazole 0.39 μg/ml): +
- Growth ([2]; Compound 1 3.13 + miconazole 0.78 μg/ml): +
- Growth ([2]; Compound 1 3.13 + miconazole 1.56 μg/ml): +
- Growth ([2]; Compound 1 3.13 + miconazole 3.13 μg/ml): +
- Growth ([2]; Compound 1 3.13 + miconazole 12.5 μg/ml): +
- Growth ([2]; Compound 1 3.13 + miconazole 25 μg/ml): +
- Growth ([2]; Compound 1 3.13 + miconazole 50 μg/ml): -
- Growth ([2]; Compound 1 3.13 + miconazole 100 μg/ml): -
- Growth ([2]; Compound 1 6.25 + ketoconazole 0.1 μg/ml): +
- Growth ([2]; Compound 1 6.25 + ketoconazole 25 μg/ml): -
- Growth ([2]; Compound 1 6.25 + ketoconazole 50 μg/ml): -
- Growth ([2]; Compound 1 6.25 + ketoconazole 100 μg/ml): -
- Growth ([2]; Compound 1 6.25 + miconazole 0.39 μg/ml): +
- Growth ([2]; Compound 1 6.25 + miconazole 0.78 μg/ml): +
- Growth ([2]; Compound 1 6.25 + miconazole 1.56 μg/ml): +
- Growth ([2]; Compound 1 6.25 + miconazole 3.13 μg/ml): +
- Growth ([2]; Compound 1 6.25 + miconazole 12.5 μg/ml): +
- Growth ([2]; Compound 1 6.25 + miconazole 25 μg/ml): +
- Growth ([2]; Compound 1 6.25 + miconazole 50 μg/ml): -
- Growth ([2]; Compound 1 6.25 + miconazole 100 μg/ml): -
- Growth ([2]; Compound 1 12.5 + ketoconazole 0.1 μg/ml): +
- Growth ([2]; Compound 1 12.5 + ketoconazole 25 μg/ml): -
- Growth ([2]; Compound 1 12.5 + ketoconazole 50 μg/ml): -
- Growth ([2]; Compound 1 12.5 + ketoconazole 100 μg/ml): -
- Growth ([2]; Compound 1 12.5 + miconazole 0.39 μg/ml): +
- Growth ([2]; Compound 1 12.5 + miconazole 0.78 μg/ml): +
- Growth ([2]; Compound 1 12.5 + miconazole 50 μg/ml): -
- Growth ([2]; Compound 1 12.5 + miconazole 100 μg/ml): -
- Growth ([2]; Compound 1 25 + ketoconazole 0.1 μg/ml): +
- Growth ([2]; Compound 1 25 + ketoconazole 25 μg/ml): -
- Growth ([2]; Compound 1 25 + ketoconazole 50 μg/ml): -
- Growth ([2]; Compound 1 25 + ketoconazole 100 μg/ml): -
- Growth ([2]; Compound 1 25 + miconazole 0.39 μg/ml): +
- Growth ([2]; Compound 1 25 + miconazole 0.78 μg/ml): +
- Growth ([2]; Compound 1 25 + miconazole 50 μg/ml): -
- Growth ([2]; Compound 1 25 + miconazole 100 μg/ml): -
- Growth ([2]; Compound 1 50 + ketoconazole 0.1 μg/ml): +
- Growth ([2]; Compound 1 50 + ketoconazole 25 μg/ml): -
- Growth ([2]; Compound 1 50 + ketoconazole 50 μg/ml): -
- Growth ([2]; Compound 1 50 + ketoconazole 100 μg/ml): -
- Growth ([2]; Compound 1 50 + miconazole 0.39 μg/ml): +
- Growth ([2]; Compound 1 50 + miconazole 0.78 μg/ml): +
- Growth ([2]; Compound 1 50 + miconazole 50 μg/ml): -
- Growth ([2]; Compound 1 50 + miconazole 100 μg/ml): -
- Growth ([2]; Compound 1 100 + ketoconazole 0.1 μg/ml): +
- Growth ([2]; Compound 1 100 + ketoconazole 25 μg/ml): -
- Growth ([2]; Compound 1 100 + ketoconazole 50 μg/ml): -
- Growth ([2]; Compound 1 100 + ketoconazole 100 μg/ml): -
- Growth ([2]; Compound 1 100 + miconazole 0.39 μg/ml): +
- Growth ([2]; Compound 1 100 + miconazole 0.78 μg/ml): +
- Growth ([2]; Compound 1 100 + miconazole 50 μg/ml): -
- Growth ([2]; Compound 1 100 + miconazole 100 μg/ml): -
- influence over growth curve [3]: fungistatic or fungicidal effects were enhanced
- effect of combined use with miconazole on inhibitory ring ([4]; Compound 1 disk on periphery of incomplete inhibitory ring of miconazole disk, FIG. 2): a portion of the incomplete inhibitory ring is completely inhibited
- effects of combined use, Compound 1 with ketoconazole ([4]; FIG. 3): remarkable effects of the combined use
- death [5]: no instance of death
- synergistic effects of combined use with non-azole antifungal agents [6]: no synergistic effects were observed
